System: hepatocytes

| Structure (SMILES) | effect on hepatocyte monolayer maintained on PET-Hybrid (soluble peptide 100 μM in culture medium) | toxicity to the hepatocytes (soluble peptide, treatment for 24 h) | morphological changes of 3D spheroids, pre-spheroid monolayer or 2D hepatocyte monolayer |
| --- | --- | --- | --- |
| N=C(N)NCCC[C@H](NC(=O)CN)C(=O)NCC(=O)N[C@@H](CC(=O)O)C(=O)N[C@@H](CO)C(=O)O [GRGDS] | destabilized the hepatocyte monolayer | slight toxicity |  |
| NCCCCCCOC1O[C@H](CO)[C@H](O)[C@H](O)[C@H]1O (stereo partly drawn) [galactose ligands, 1-O-(6′-aminohexyl)-D-galactopyranoside] |  |  | did not induce any morphological changes |

Source: US9670462B2, “Bioactive surface for hepatocyte-based applications” (priority 2006, dated 2017)
